In ChEMBL document CHEMBL5465560, “Selectivity Literature for EUbOPEN Chemogenomic Library” (2024):
Blank lines part the entries; values can stand above or below the compound they belong to.

Assays:
[1] = molecular target: T1, SNF-related serine/threonine-protein kinase (Homo sapiens) (UniProt Q9NRH2); assay: Selectivity interaction (KinomeScan (DiscoverX)) EUB0000618a SNRK; settings: at 10 µM
T1 sequence (whole entry): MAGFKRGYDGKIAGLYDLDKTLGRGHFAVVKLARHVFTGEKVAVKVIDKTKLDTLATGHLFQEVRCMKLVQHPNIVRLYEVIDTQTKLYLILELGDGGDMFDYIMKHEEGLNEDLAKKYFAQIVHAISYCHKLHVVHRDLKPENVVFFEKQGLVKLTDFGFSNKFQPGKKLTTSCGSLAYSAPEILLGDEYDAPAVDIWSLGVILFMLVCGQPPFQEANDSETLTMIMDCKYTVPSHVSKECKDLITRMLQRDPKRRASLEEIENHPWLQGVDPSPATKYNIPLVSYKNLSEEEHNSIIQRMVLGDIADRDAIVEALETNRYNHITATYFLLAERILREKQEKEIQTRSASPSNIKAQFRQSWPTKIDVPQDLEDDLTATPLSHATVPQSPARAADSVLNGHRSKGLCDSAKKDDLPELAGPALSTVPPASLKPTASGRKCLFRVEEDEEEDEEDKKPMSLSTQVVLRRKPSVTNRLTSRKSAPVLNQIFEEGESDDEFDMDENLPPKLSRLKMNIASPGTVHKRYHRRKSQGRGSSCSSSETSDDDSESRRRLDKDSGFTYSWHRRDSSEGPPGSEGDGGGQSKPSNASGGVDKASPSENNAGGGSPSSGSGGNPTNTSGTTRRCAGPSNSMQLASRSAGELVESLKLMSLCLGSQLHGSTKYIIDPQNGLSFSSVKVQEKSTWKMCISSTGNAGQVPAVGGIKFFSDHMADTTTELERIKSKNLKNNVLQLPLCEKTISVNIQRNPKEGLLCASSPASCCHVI

[2] = molecular target: T2, Mitogen-activated protein kinase 12 (Homo sapiens) (UniProt P53778); assay: Selectivity interaction (ActivX KiNativ screen (ex vivo kinase selectivity in human PBMCs)) EUB0001619a MAPK12; assay type: cell-based; settings: PBMC, at 1 µM
T2 sequence (whole entry): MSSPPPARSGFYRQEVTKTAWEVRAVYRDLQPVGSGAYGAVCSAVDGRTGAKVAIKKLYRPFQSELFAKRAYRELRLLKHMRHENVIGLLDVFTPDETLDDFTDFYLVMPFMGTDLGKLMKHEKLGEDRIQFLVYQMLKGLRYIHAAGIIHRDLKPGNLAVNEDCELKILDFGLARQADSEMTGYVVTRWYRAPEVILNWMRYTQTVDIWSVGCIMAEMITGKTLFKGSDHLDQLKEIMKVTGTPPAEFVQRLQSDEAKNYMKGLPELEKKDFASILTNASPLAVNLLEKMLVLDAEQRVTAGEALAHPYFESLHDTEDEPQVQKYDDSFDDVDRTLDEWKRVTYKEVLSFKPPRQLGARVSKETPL

[3] = molecular target: Ribosomal protein S6 kinase alpha-2 (Homo sapiens) (UniProt Q15349); assay: Selectivity interaction (KinomeScan (DiscoverX)) EUB0001619a RPS6KA2; settings: at 1 µM
Chain of Ribosomal protein S6 kinase alpha-2 (Homo sapiens) (Q15349 whole entry): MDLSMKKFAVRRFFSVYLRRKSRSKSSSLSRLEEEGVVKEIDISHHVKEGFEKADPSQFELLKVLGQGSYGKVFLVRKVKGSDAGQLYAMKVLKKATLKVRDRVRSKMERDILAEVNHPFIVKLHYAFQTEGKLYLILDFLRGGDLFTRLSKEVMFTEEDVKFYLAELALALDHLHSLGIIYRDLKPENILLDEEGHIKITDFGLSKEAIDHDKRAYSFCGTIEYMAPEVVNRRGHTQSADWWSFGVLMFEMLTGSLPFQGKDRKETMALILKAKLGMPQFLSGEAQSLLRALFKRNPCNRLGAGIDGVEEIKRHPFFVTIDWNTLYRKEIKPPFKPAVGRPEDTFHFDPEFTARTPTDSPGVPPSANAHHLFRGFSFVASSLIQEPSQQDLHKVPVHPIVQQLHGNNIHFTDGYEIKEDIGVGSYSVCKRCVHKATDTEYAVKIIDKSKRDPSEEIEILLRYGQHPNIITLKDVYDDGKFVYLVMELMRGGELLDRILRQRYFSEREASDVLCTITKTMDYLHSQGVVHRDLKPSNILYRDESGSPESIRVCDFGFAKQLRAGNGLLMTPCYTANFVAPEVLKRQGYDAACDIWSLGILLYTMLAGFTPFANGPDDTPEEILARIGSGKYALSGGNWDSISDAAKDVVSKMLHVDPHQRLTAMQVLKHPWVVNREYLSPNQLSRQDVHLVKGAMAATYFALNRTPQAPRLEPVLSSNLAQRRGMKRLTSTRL

[4] = molecular target: Cyclin-dependent kinase-like 3 (Homo sapiens) (UniProt Q8IVW4); assay: Selectivity interaction (KinomeScan (DiscoverX)) EUB0001619a CDKL3; settings: at 1 µM
Chain of Cyclin-dependent kinase-like 3 (Homo sapiens) (Q8IVW4 whole entry, looked up): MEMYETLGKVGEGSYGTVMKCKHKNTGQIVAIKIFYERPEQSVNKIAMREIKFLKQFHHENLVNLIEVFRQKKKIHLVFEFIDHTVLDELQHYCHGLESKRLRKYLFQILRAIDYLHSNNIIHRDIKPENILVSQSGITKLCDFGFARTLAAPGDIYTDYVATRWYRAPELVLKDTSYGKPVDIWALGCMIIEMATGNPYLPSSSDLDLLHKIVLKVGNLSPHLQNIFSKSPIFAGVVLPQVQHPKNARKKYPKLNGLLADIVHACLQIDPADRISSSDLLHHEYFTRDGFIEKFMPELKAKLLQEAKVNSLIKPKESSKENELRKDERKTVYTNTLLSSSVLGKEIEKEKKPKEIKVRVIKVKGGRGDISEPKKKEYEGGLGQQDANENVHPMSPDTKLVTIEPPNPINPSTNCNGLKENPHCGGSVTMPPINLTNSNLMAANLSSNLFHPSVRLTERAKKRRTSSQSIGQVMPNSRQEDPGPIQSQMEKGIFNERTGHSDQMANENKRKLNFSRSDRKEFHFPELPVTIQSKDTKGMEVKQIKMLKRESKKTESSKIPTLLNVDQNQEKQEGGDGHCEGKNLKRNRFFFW

[5] = molecular target: RAC-gamma serine/threonine-protein kinase (Homo sapiens, UniProt Q9Y243); assay: Selectivity interaction (KinomeScan (DiscoverX)) EUB0000595a AKT3; settings: at 10 µM
Chain of RAC-gamma serine/threonine-protein kinase (Q9Y243 whole entry): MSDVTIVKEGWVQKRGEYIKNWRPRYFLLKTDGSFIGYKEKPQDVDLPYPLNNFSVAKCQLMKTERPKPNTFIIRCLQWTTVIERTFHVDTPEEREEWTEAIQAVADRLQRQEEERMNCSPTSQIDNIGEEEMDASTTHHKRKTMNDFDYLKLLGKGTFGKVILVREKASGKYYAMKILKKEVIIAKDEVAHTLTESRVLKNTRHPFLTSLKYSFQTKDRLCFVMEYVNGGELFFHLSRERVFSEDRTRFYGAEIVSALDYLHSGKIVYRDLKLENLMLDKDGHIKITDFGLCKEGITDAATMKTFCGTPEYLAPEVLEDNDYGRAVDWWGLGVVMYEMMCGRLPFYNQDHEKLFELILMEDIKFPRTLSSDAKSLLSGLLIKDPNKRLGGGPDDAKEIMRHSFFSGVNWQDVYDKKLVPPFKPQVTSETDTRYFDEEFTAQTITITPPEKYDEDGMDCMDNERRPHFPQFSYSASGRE

[6] = molecular target: Calcium/calmodulin-dependent protein kinase type 1D (Homo sapiens) (UniProt Q8IU85); assay: Selectivity interaction (KinomeScan (DiscoverX)) EUB0000595a CAMK1D; settings: at 10 µM
[7] = molecular target: STE20-like serine/threonine-protein kinase (Homo sapiens, UniProt Q9H2G2); assay: Selectivity interaction (ActivX KiNativ screen (kinase selectivity in THP-1 cell lysates)) EUB0000639a SLK; assay type: subcellular; settings: lysate, at 0.04 µM
Chain of STE20-like serine/threonine-protein kinase (Q9H2G2 whole entry, looked up): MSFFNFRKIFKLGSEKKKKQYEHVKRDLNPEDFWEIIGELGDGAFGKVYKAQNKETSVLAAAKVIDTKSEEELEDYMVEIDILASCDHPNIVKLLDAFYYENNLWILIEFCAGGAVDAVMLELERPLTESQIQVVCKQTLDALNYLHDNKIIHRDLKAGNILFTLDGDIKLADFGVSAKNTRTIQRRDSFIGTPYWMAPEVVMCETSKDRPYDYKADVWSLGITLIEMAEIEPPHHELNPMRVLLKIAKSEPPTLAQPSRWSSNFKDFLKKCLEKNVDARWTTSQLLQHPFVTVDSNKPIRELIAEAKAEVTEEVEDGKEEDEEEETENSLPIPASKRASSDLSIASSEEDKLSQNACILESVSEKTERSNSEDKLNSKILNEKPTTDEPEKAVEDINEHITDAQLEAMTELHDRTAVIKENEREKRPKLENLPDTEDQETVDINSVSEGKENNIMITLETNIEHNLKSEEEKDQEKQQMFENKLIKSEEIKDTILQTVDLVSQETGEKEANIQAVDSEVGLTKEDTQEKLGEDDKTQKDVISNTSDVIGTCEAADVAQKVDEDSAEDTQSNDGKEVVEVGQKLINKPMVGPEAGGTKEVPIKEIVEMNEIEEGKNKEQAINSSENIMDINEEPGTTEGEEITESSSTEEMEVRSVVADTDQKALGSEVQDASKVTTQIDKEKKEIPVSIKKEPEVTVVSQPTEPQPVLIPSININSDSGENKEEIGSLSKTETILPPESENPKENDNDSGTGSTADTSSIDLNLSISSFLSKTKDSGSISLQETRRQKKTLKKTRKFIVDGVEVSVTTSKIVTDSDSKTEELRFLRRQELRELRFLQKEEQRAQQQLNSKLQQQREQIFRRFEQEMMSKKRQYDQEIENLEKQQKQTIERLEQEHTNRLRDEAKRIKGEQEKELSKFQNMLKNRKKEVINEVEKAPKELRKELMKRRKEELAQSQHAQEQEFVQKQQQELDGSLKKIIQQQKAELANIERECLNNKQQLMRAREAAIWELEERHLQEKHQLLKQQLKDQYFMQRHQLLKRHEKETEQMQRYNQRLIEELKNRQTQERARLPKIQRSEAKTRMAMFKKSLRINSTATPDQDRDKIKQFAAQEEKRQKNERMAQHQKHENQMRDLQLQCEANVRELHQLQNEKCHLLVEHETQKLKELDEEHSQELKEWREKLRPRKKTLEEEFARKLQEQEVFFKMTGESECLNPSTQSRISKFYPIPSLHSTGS

[8] = molecular target: T2, Mitogen-activated protein kinase 12 (Homo sapiens); assay: Selectivity interaction (ActivX KiNativ screen (kinase selectivity in THP-1 cell lysates)) EUB0000639a MAPK12; assay type: subcellular; settings: lysate
[9] = molecular target: Phosphatidylinositol 4-kinase beta (Homo sapiens, UniProt Q9UBF8); assay: Selectivity interaction (Kinase panel (Invitrogen)) EUB0000639a PI4KB; settings: at 200 nM
Chain of Phosphatidylinositol 4-kinase beta (Q9UBF8 2-816 limits assumed): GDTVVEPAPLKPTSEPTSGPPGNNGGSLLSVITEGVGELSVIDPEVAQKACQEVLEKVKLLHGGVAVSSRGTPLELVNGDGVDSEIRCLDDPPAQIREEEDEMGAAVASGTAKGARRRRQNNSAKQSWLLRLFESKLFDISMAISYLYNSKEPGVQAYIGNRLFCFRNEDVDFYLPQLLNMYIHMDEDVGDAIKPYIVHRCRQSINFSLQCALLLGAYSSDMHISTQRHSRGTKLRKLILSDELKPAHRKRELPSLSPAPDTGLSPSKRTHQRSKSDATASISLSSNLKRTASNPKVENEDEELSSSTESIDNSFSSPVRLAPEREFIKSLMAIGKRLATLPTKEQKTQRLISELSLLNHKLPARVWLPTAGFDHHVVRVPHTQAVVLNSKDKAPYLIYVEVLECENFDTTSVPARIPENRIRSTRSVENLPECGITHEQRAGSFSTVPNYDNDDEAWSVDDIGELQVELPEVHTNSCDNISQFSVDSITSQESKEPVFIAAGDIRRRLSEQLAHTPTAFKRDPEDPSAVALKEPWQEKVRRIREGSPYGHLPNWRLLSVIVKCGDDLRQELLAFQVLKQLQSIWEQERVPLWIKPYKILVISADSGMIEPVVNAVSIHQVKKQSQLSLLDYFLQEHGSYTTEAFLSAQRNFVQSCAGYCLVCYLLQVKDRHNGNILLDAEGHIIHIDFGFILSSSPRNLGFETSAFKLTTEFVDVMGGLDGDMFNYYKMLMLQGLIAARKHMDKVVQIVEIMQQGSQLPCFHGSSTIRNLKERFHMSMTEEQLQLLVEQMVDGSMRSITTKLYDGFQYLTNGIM

[10] = molecular target: [Pyruvate dehydrogenase (acetyl-transferring)] kinase isozyme 1, mitochondrial (Homo sapiens, UniProt Q15118)
Chain of [Pyruvate dehydrogenase (acetyl-transferring)] kinase isozyme 1, mitochondrial (Q15118 whole entry): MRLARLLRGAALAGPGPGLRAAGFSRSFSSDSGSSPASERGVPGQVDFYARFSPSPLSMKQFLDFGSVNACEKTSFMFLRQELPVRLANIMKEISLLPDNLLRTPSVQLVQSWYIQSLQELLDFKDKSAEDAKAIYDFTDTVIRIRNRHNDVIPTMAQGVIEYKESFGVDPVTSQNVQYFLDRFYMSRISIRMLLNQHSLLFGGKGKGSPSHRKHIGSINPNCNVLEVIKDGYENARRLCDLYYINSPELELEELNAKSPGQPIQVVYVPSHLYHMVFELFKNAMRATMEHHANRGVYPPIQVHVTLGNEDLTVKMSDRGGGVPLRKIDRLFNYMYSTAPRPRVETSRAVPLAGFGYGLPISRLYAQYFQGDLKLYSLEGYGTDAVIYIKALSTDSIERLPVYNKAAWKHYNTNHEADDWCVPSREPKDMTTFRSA

[11] = molecular target: Tyrosine-protein kinase SYK (Homo sapiens, UniProt P43405); assay: Selectivity interaction (ProQinase) EUB0000171b SYK
[12] = molecular target: T3, Casein kinase I isoform alpha-like (Homo sapiens) (UniProt Q8N752); assay: Selectivity interaction (KinomeScan (DiscoverX)) EUB0000092b CSNK1A1L; settings: at 10 µM
T3 sequence (whole entry): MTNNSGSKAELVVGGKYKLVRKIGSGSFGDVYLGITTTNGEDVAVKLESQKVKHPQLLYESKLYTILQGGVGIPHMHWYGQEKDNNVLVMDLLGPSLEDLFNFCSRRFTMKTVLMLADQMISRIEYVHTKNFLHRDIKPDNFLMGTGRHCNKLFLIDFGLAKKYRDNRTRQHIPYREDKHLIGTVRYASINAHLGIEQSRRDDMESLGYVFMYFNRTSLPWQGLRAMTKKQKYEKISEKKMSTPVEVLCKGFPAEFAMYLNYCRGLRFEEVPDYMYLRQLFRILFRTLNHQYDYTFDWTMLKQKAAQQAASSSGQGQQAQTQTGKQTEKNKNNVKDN

[13] = molecular target: Mitogen-activated protein kinase 8 (Homo sapiens, UniProt P45983); assay: Selectivity interaction (KinomeScan (DiscoverX)) EUB0000092b MAPK8; settings: at 10 µM
Chain of Mitogen-activated protein kinase 8 (P45983 whole entry): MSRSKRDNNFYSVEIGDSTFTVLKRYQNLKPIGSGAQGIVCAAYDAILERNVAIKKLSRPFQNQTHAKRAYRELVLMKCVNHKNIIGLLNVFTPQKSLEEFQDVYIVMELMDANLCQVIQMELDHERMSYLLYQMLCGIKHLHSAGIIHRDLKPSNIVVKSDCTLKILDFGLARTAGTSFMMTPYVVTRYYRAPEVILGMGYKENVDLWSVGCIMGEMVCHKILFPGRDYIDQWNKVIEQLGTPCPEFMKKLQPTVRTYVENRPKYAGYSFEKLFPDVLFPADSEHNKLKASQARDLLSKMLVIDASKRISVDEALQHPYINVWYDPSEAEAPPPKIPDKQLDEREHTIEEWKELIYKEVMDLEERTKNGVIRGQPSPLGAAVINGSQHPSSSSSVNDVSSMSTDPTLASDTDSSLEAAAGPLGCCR

SMILES: O[C@H]1CC[C@H](Nc2ncc3nc(Nc4c(F)cc(F)cc4F)n([C@H]4CCOC4)c3n2)CC1
% of control [1]: 100%

SMILES: N#Cc1cccc(-c2c[nH]c3ncnc(N4CCOCC4)c23)c1
% of inhibition [2]: -6%
% of control [3]: 100%
% of control [4]: 100%

SMILES: COCC(=O)NC/C=C/c1ccc2ncnc(Nc3ccc(Oc4ccc(C)nc4)c(C)c3)c2c1 [CP-724714]
% of control [5]: 100%
% of control [6]: 87%

% of inhibition [7]: -0.4%
% of inhibition ([8]; at 0.01 µM): -4.4%
% of inhibition ([8]; at 0.04 µM): 6%
% of inhibition ([8]; at 0.2 µM): -3.6%
% of inhibition ([8]; at 1 µM): 7.4%
% of inhibition ([8]; at 5 µM): 20.3%
% of inhibition [9]: -0.901%
SMILES: CC[C@@H]1[C@H](F)C(=O)N[C@@H]1COc1nccc2cc(C(N)=O)c(OC)cc12 [ZIMLOVISERTIB]

IC50 [10]: > 10 µM
SMILES: CCc1cccc(CC)c1NC(=O)c1nn(C)c2c1CCc1cnc(Nc3ccc(C(=O)NC4CCN(C)CC4)cc3OC(F)(F)F)nc1-2

% of control ([11]; at 1 µM): 94%
% of control ([11]; at 5 µM): 86%
SMILES: C=CC(=O)Nc1cccc(C(=O)Nc2ccc(Nc3cc(-c4[nH]c(SC)nc4C)ccn3)cc2)c1

SMILES: CCC(=O)N1CCN(c2ccc(-n3c(=O)ccc4cnc5ccc(-c6cnc7ccccc7c6)cc5c43)cc2C(F)(F)F)CC1
% of control [12]: 81%
% of control [13]: 22%
